Assay [1] deals with T1, H1R endogenously expressed in HeLa cells (Homo sapiens, UniProt P35367).
For assay [2], the target named is T1, H1R endogenously expressed in HeLa cells. The source holds these as a separate data set.
Protocol: (1) normalizedfluorescentresponse=FHA−Fb/Ft−Fb
The AUC was quantified using GraphPad Prism (GraphPad Software, San Diego, CA, United States). Settings were as such that peaks were ignored when there was less than 1% difference between min and max fluorescence and/or peaks shaped by fewer than 10 data points. The resulting dose-response curves were analyzed by non-linear regression according to Eq. 2.
The subject of assay [3] is H1R. Set-up: method as in Slack et al., 2011a,b. Conditions: ex vivo organ bath, antagonists continuously removed; ref Slack et al., 2011a,b; cited from earlier work.
The target of assay [4] is T1, H1R endogenously expressed in HeLa cells. Briefly: Receptor recovery of calcium mobilization after antagonist washout. It is filed as cell-based. Set-up: HeLa cells, endogenously expressing the H1R at low, but physiological relevant densities, were used in both assays; endogenous in cells; host or cells: HeLa cells (in-house cell biobank). Conditions: for RecT (receptor recovery time), calcium mobilization: reciprocal of krec. Here is the method: HeLa cells were cultured as described above. HeLa cells were lifted from a subconfluent dish by incubating with a 1x trypsin solution for 4 min. Cells were then seeded in a black, clear bottom 96-well plate, with 2 × 10^4 cells per well. Subsequently, the cells were pre-incubated overnight in culture medium with a range of antagonist concentrations or without antagonist, as is specified per assay format below. After 18–20 h, assay buffer was prepared by supplementing HBSS with 20 mM HEPES pH 7.4 and 2.5 mM probenecid (from a 2.5 × 10^-1 M stock in water). Dye solution was then prepared by dissolving one aliquot of Fluo4 NW in 22 mL assay buffer. Medium was aspirated and Fluo4 NW dye solution was supplemented to the cells and incubated for an hour at 37°C in the presence of the respective antagonist. After labeling the cells with Fluo4 NW, readout of the calcium response was measured per individual well in series.
One 96-well plate with HeLa cells was separated into four sections and each section was pre-incubated with a respective 10 times Ki concentrations of antihistamine or vehicle condition. […] Following Fluo4 NW loading in the presence of the respective concentration antihistamine, cells were washed and reconstituted in 100 μL assay buffer that was pre-heated to 37°C (t0). […] The first measurement was started approximately 2 min after washing the cells and subsequent wells were measured with 75 s intervals. […] The data was analyzed using non-linear regression with a one-phase association model in GraphPad Prism according to Eq. 3.
(3) Y=Y0+(Ymax−Y0)×(1−e^(−krec×t))
For all other antihistamines a free fit of Ymax was allowed, reported in the results as the steady-state recovery (%). Receptor recovery times (RecT) were calculated for each experiment as the reciprocal of the krec. Reported krec and RecT values are the mean ± SEM of ≥3 experiments.
A general note: Calcium assays in cells follow changes in intracellular calcium, usually with a dye or a luminescent sensor.

The target is the same in assay [5]. Briefly: DMR receptor recovery after washout. Conditions: 10x Ki pre-incubation, 1 h and 2 h after washout.
Protocol: For the measurement of DMR in HeLa cells upon treatment by agonists and antagonists, a resonant waveguide grating (RWG) biosensor method was used.
HeLa cells were grown in DMEM High Glucose medium with L-Glutamine supplemented with 10% FBS and 1x penicillin/streptomycin [all reagents were obtained from Capricorn Scientific GmbH (Ebsdorfergrund, Germany)] and incubated in humidified atmosphere at 37°C and 5% CO2 in air.
As vehicle control wells with medium/DMSO treated cells were included. The LFC plate was incubated overnight in a humidified atmosphere at 37°C and 5% CO2 in air. On the next day assay buffer [HBSS (Sigma–Aldrich), 20 mM HEPES (Sigma–Aldrich), 0.5% (v/v) DMSO] was adapted to room temperature before use. 22–24 h after cell seeding antagonists were removed from the LFC plate and wells were washed four times with label-free assay buffer (25 μL/ well). The total assay volume after the washing step was 30 μL/ well.
In all experiments a DMSO concentration of 0.5% (v/v) was not exceeded. The LFC plate was placed in an EnSpire® Multimode Plate Reader equipped with Corning® Epic® Label-free technology.
Data was analyzed individually for each quadrant of the 384 well LFC plate using GraphPad Prism.
Depicted values represent mean and standard deviation of two independent experiments.
Assay [6] concerns H1R. Set-up: method as in Gillard et al., 2002; Schoepke et al., 2013. Conditions: ref Gillard et al., 2002; Schoepke et al., 2013; cited from earlier work.
The mark [7] stands for this setting: 10x Ki pre-incubation, washout, 37°C, mean ± SEM of ≥3.

Each structure is given as a SMILES string. Read-outs that look alike come from different tables or passages of the source.

T1 sequence (P35367 whole entry): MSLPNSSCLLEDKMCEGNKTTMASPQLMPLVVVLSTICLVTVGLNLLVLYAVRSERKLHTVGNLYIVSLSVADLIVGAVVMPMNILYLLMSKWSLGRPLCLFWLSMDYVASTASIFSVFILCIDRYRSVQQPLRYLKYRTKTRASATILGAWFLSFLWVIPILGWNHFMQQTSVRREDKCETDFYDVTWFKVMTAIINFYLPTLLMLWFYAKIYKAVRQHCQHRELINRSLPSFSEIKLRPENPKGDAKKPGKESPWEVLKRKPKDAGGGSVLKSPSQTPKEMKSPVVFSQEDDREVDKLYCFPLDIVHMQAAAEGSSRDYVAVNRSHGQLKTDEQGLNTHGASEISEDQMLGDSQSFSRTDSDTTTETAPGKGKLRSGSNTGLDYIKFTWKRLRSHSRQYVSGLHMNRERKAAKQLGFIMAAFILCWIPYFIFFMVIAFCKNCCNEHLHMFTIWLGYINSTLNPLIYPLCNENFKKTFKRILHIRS

For the compound `NCCc1c[nH]cn1` [histamine], in assay [1] (AUC), the “Hill slope of histamine, DMR (AUC)” value turned out to be 0.88. The “Hill slope of histamine, DMR (peak response)” value in assay [1] (peak response) was 0.92. Further, the “Hill slope of histamine, calcium mobilization” value in assay [2] is given as 1.1 ± 0.1.
For the compound `O=c1c2ccccc2c(Cc2ccc(Cl)cc2)nn1C[C@H]1CCCN1CCCCc1ccc(OCCCN2CCCCCC2)cc1` [GSK1004723], in the assay with H1R [3], the “inhibition of histamine-induced, H1R mediated bronchial contraction (in words)” value is “retained a long inhibition”.
Consider `CN1CCCC(n2nc(Cc3ccc(Cl)cc3)c3ccccc3c2=O)CC1` (centres unmarked) [azelastine], for which the “inhibition of histamine-induced, H1R mediated bronchial contraction (in words)” value with H1R [3] is on record as “retained a long inhibition”.
For `CN(C)CC/C=C1/c2ccccc2COc2ccc(CC(=O)O)cc21` [Olopatadine, olopatadine], in assay [4], the “krec (recovery rate of histamine induced calcium mobilization)” value is 0.006 ± 0.001 min⁻¹ and the “recovery of histamine induced calcium mobilization after washout (in words)” value is “even more delayed”. Also, in assay [4] (setting [7]), the “RecT (receptor recovery time), calcium mobilization” value is 226 ± 60 min. Moreover, in assay [5], the “insurmountable antagonism of histamine DMR response after washout (in words)” value (shortened to “insurmountable antagonism”) is “pronounced” and the “suppression of maximal histamine DMR response after washout (in words)” value is given as “suppressed the Emax up to 2 h”. Besides, in assay [2], the “antagonism of histamine-induced calcium mobilization after overnight pre-incubation (in words)” value was “full insurmountable inhibition”.
For the compound `O=C(O)COCCN1CCN([C@H](c2ccccc2)c2ccc(Cl)cc2)CC1` [Levocetirizine, levocetirizine], the “krec (recovery rate of histamine induced calcium mobilization)” value in assay [4] (10x Ki overnight pre-incubation, washout, 10^-5 M histamine, 37°C, mean ± SEM of ≥3) was found to be 0.014 ± 0.003 min⁻¹. The “recovery of histamine induced calcium mobilization after washout (in words)” value in assay [4] (10x Ki pre-incubation, 10^-5 M histamine) is on record as “even more delayed”. Besides, the “Steady-state recovery (%)” value in assay [4] (fitted Ymax of histamine-induced calcium response after washout, relative to vehicle pre-treated cells) is recorded as 104 ± 10%. For the same compound, the “RecT (receptor recovery time), calcium mobilization” value in assay [4] (setting [7]) turned out to be 87 ± 20 min. In assay [5], the “insurmountable antagonism” value is “pronounced” and the “suppression of maximal histamine DMR response after washout (in words)” value is “suppressed the Emax up to 2 h”. In assay [2] (HeLa cells, increasing antagonist and histamine concentrations), the “antagonism of histamine-induced calcium mobilization after overnight pre-incubation (in words)” value is given as “full insurmountable inhibition”. In the assay on H1R [6], the “in vivo efficacy after depletion of free concentrations in the blood (in words)” value is “hysteresis of efficacy”.
Consider `Cc1ccc(/C(=C\CN2CCCC2)c2ccccn2)cc1` [Triprolidine, triprolidine], for which the “insurmountable antagonism” value in assay [5] was “showed insurmountable antagonism, but this was the same at 1 and 2 h”.
